Measurements taken from PubChem BioAssay (NCI).
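A five-concentration, 48-hour dose response in 96-well plates underlies each endpoint, interpolated linearly between surrounding concentrations. At the GI50, growth is halved. The concentration for full growth arrest is given as TGI.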

Key:
Assay in all cases: NCI-60 cell line screen, 48 h
HOP-62 NSCLC = tested on: HOP-62 NSCLC
U251 CNS = tested on: U251 CNS
NCI-H460 lung = tested on: NCI-H460 lung
MALME-3M melanoma = tested on: MALME-3M melanoma
HOP-92 NSCLC = tested on: HOP-92 NSCLC
MCF7 breast = tested on: MCF7 breast
786-0 renal = tested on: 786-0 renal
BT-549 breast = tested on: BT-549 breast
HCT-15 colon = tested on: HCT-15 colon
RPMI-8226 leukemia = tested on: RPMI-8226 leukemia
HS 578T breast = tested on: HS 578T breast
NCI-H226 lung = tested on: NCI-H226 lung
MDA-MB-231 breast = tested on: MDA-MB-231 breast
OVCAR-4 ovarian = tested on: OVCAR-4 ovarian
OVCAR-3 ovarian = tested on: OVCAR-3 ovarian
UACC-62 melanoma = tested on: UACC-62 melanoma
SF-539 CNS = tested on: SF-539 CNS
OVCAR-5 ovarian = tested on: OVCAR-5 ovarian
DU-145 prostate = tested on: DU-145 prostate
SN12C renal = tested on: SN12C renal
HCT-116 colon = tested on: HCT-116 colon
A498 renal = tested on: A498 renal
CAKI-1 renal = tested on: CAKI-1 renal
HT29 colon = tested on: HT29 colon
SF-295 CNS = tested on: SF-295 CNS
SNB-75 CNS = tested on: SNB-75 CNS
KM12 colon = tested on: KM12 colon
T-47D breast = tested on: T-47D breast
COLO 205 colon = tested on: COLO 205 colon
LOX IMVI melanoma = tested on: LOX IMVI melanoma
RXF 393 renal = tested on: RXF 393 renal
SK-MEL-2 melanoma = tested on: SK-MEL-2 melanoma
NCI-H23 lung = tested on: NCI-H23 lung
M14 melanoma = tested on: M14 melanoma
UO-31 renal = tested on: UO-31 renal
SK-MEL-28 melanoma = tested on: SK-MEL-28 melanoma
SK-MEL-5 melanoma = tested on: SK-MEL-5 melanoma
HCC-2998 colon = tested on: HCC-2998 colon
SK-OV-3 ovarian = tested on: SK-OV-3 ovarian
EKVX NSCLC = tested on: EKVX NSCLC
TK-10 renal = tested on: TK-10 renal
SNB-19 CNS = tested on: SNB-19 CNS
NCI/ADR-RES ovarian = tested on: NCI/ADR-RES ovarian
ACHN renal = tested on: ACHN renal
CCRF-CEM leukemia = tested on: CCRF-CEM leukemia
SW-620 colon = tested on: SW-620 colon
MDA-MB-435 = tested on: MDA-MB-435
SF-268 CNS = tested on: SF-268 CNS
NCI-H522 lung = tested on: NCI-H522 lung

## CCCCCCCC/C(=C\C1=C(C)C(=O)C(OC)=C(OC)C1=O)C(=O)O
HOP-62 NSCLC
  GI50: 73.2 µM
  TGI: > 100 µM
U251 CNS
  GI50: 19.9 µM
  TGI: 41.8 µM
NCI-H460 lung
  GI50: 86.7 µM
  TGI: > 100 µM
MALME-3M melanoma
  GI50: 51.3 µM
  TGI: > 100 µM
HOP-92 NSCLC
  GI50: 13 µM
  TGI: 29.6 µM
MCF7 breast
  GI50: 22.3 µM
  TGI: 44.8 µM
786-0 renal
  GI50: 62.7 µM
  TGI: > 100 µM
BT-549 breast
  GI50: 24.2 µM
  TGI: 54.6 µM
HCT-15 colon
  GI50: 63.6 µM
  TGI: > 100 µM
RPMI-8226 leukemia
  GI50: 20.5 µM
  TGI: 49.9 µM
HS 578T breast
  GI50: 23.8 µM
  TGI: 83.9 µM
NCI-H226 lung
  GI50: 29.2 µM
  TGI: > 100 µM
MDA-MB-231 breast
  GI50: 21.4 µM
  TGI: 51.2 µM
OVCAR-4 ovarian
  GI50: 19.9 µM
  TGI: 36.9 µM
OVCAR-3 ovarian
  GI50: 34.1 µM
  TGI: > 100 µM
UACC-62 melanoma
  GI50: 33.8 µM
  TGI: > 100 µM
SF-539 CNS
  GI50: 23.2 µM
  TGI: 75.5 µM
OVCAR-5 ovarian
  GI50: > 100 µM
  TGI: > 100 µM
DU-145 prostate
  GI50: 25.4 µM
  TGI: 94 µM
SN12C renal
  GI50: 198 nM
  TGI: 29.2 µM
HCT-116 colon
  GI50: 16.3 µM
  TGI: 29.9 µM
A498 renal
  GI50: 78.8 µM
  TGI: > 100 µM
CAKI-1 renal
  GI50: 51.2 µM
  TGI: > 100 µM
HT29 colon
  GI50: 65.1 µM
  TGI: > 100 µM
SF-295 CNS
  GI50: 43 µM
  TGI: > 100 µM
SNB-75 CNS
  GI50: 67.7 µM
  TGI: > 100 µM
KM12 colon
  GI50: 53.5 µM
  TGI: > 100 µM
T-47D breast
  GI50: 21.9 µM
  TGI: 48.8 µM
COLO 205 colon
  GI50: > 100 µM
  TGI: > 100 µM
LOX IMVI melanoma
  GI50: 19.9 µM
  TGI: 45.5 µM
RXF 393 renal
  GI50: 23.7 µM
  TGI: 44.1 µM
SK-MEL-2 melanoma
  GI50: > 100 µM
  TGI: > 100 µM
NCI-H23 lung
  GI50: 57.7 µM
  TGI: > 100 µM
M14 melanoma
  GI50: > 100 µM
  TGI: > 100 µM
UO-31 renal
  GI50: 40.3 µM
  TGI: > 100 µM
SK-MEL-28 melanoma
  GI50: 43.4 µM
  TGI: > 100 µM
SK-MEL-5 melanoma
  GI50: 36.7 µM
  TGI: > 100 µM
HCC-2998 colon
  GI50: 66.2 µM
  TGI: > 100 µM
SK-OV-3 ovarian
  GI50: > 100 µM
  TGI: > 100 µM
EKVX NSCLC
  GI50: 15.8 µM
  TGI: 31.6 µM
TK-10 renal
  GI50: > 100 µM
  TGI: > 100 µM
SNB-19 CNS
  GI50: 75.9 µM
  TGI: > 100 µM
NCI/ADR-RES ovarian
  GI50: 27.1 µM
  TGI: 97.5 µM
ACHN renal
  GI50: 29 µM
  TGI: > 100 µM
CCRF-CEM leukemia
  GI50: 20.2 µM
  TGI: 42.5 µM
SW-620 colon
  GI50: 35 µM
  TGI: > 100 µM
MDA-MB-435
  GI50: 18.8 µM
  TGI: 37 µM
SF-268 CNS
  GI50: 29.5 µM
  TGI: 70.3 µM
NCI-H522 lung
  GI50: 78.1 µM
  TGI: > 100 µM
